The record followed here is US20260070945A1, “MACROCYCLIC IMMUNOMODULATORS” (Bristol-Myers Squibb Company, priority 2022, published 2026).

For orientation: IC50 means the point on the concentration scale where inhibition reaches its midpoint.

Where a SMILES comes first, the peptide text is derived from it. Bridges are numbered along the chain shown (N, C = ends). [ ]: non-standard residue; d: D form. The star is where a group is joined. ξ: configuration not given here. Phe(4-(4-F-Ph)) = N[C@@H](Cc1ccc(-c2ccc(F)cc2)cc1)C(=O)O; Phe(3-CF3) = N[C@@H](Cc1cccc(C(F)(F)F)c1)C(=O)O; Phe(4-COOH) = N[C@@H](Cc1ccc(C(=O)O)cc1)C(=O)O; Bip = N[C@@H](Cc1ccc(-c2ccccc2)cc1)C(=O)O; Phe(3-Me) = Cc1cccc(C[C@H](N)C(=O)O)c1; NH(CH2)12COOH = O=C(O)CCCCCCCCCCCCN*; Val(3-OH) = CC(C)(O)[C@H](N)C(=O)O; aIle = CC[C@@H](C)[C@H](N)C(=O)O; 4Pal = N[C@@H](Cc1ccncc1)C(=O)O; Cha = N[C@@H](CC1CCCCC1)C(=O)O; Cit = NC(=O)NCCC[C@H](N)C(=O)O; Ile(3ξ) = CCC(C)[C@H](N)C(=O)O; NMeN = CN[C@@H](CC(N)=O)C(=O)O; Thr(3ξ) = CC(O)[C@H](N)C(=O)O; Carboxymethyl = O=C(O)C*; NMeA = CN[C@@H](C)C(=O)O; Orn = NCCC[C@H](N)C(=O)O; Aun = NCCCCCCCCCCC(=O)O; Dab = NCC[C@H](N)C(=O)O; Dap = NC[C@H](N)C(=O)O; AEEA = NCCOCCOCC(=O)O; Sar = CNCC(=O)O

T1 sequence (Q15116 25-288): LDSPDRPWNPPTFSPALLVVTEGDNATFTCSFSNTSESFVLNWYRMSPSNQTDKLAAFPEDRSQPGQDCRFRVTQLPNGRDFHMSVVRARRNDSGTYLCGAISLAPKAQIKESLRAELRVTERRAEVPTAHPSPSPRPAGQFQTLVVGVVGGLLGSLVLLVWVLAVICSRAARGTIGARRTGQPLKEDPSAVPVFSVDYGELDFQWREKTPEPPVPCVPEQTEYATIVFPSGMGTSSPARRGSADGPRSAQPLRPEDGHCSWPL

The assay concerns the target T1, PD-1/PD-L1 interaction (PE-labeled human PD-L1-Ig binding to Jurkat cell line over-expressing human PD-1) (Homo sapiens, UniProt Q15116).
T1 construct: expressed in transfected cells; host or cells: Jurkat
Nature of the assay: Jurkat-PD-1 Cell Binding High-Content Screening Assay (CBA). The settings on record: Jurkat-hPD-1 cells, PE-labeled PD-L1-Ig 20 nM final; read-out: Jurkat HPD1 PDL1 IC50. Summed up:
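In this imaging assay, cells in 10% FCS medium see compound for 2 h at 37 °C and then labeled ligand at 20 nM final for 1 h. Paraformaldehyde fixation, Hoechst 33342 staining and dPBS washes precede image capture.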
In the case of `CC(C)C[C@@H]1NC(=O)[C@H](Cc2c[nH]c3ccccc23)NC(=O)[C@H](CC(=O)O)NC(=O)[C@H](Cc2ccncc2)NC(=O)[C@H](Cc2ccc(OCC(=O)O)cc2)NC(=O)CSC[C@@H](C(=O)NCC(=O)NCCOCCOCC(=O)N[C@@H](CCCNC(N)=O)C(=O)NCCCCCCCCCCC(=O)O)NC(=O)[C@H](CCCNC(N)=O)NC(=O)[C@H](C(C)C)NC(=O)[C@H](CC2CCCCC2)NC(=O)[C@H](CCN)NC(=O)[C@@H](CC(C)C)NC(=O)[C@H](C)N(C)C(=O)[C@H](C(C)C)NC(=O)[C@H](Cc2ccc(-c3ccccc3)cc2)NC1=O` [Example 2173] ({CH2CO}-Y(Carboxymethyl)[4Pal]DWL[Bip]V[NMeA][dL][Dab][Cha]V[Cit]CG[AEEA][Cit][Aun]-OH; thioether N-14), the IC50 amounted to 15.6 nM.

For `COC[C@@H]1NC(=O)CSC[C@@H](C(=O)N[C@@H](CCN)C(=O)NCCCCCCCCCCCCC(=O)O)NC(=O)[C@H](Cc2c[nH]cn2)NC(=O)[C@H](C(C)(C)O)NC(=O)[C@H](CC2CCCCC2)NC(=O)[C@H](CCN)NC(=O)[C@@H](CC(C)C)NC(=O)[C@H](C)N(C)C(=O)[C@H](CCCNC(N)=O)NC(=O)[C@H](Cc2ccc(-c3ccccc3)cc2)NC(=O)[C@H](Cc2ccc(C(=O)O)cc2)NC(=O)[C@H](Cc2cccc(C(F)(F)F)c2)NC(=O)[C@H](CC(=O)O)NC(=O)[C@H](Cc2ccc(OCC(=O)O)cc2)NC1=O` [Example 1141] ({CH2CO}-S(Me)Y(Carboxymethyl)D[Phe(3-CF3)][Phe(4-COOH)][Bip][Cit][NMeA][dL][Dab][Cha][Val(3-OH)]HC[Dab]-{NH(CH2)12COOH}; thioether N-14), the IC50 was 18.2 nM. For `Cc1cccc(C[C@@H]2NC(=O)[C@H](CC(=O)O)NC(=O)[C@H](Cc3ccc(C(=O)O)cc3)NC(=O)[C@H](Cc3ccc(OCC(=O)O)cc3)NC(=O)CSC[C@@H](C(=O)N[C@@H](CCN)C(=O)NCCCCCCCCCCC(=O)O)NC(=O)[C@H](CCC(=O)O)NC(=O)[C@H](C(C)C)NC(=O)[C@H](CC3CCCCC3)NC(=O)[C@H](CCN)NC(=O)[C@@H](CC(C)C)NC(=O)[C@H](C)N(C)C(=O)[C@H](C(C)C)NC(=O)[C@H](Cc3ccc(-c4ccccc4)cc3)NC(=O)[C@H](CC(C)C)NC2=O)c1` [Example 2293] ({CH2CO}-Y(Carboxymethyl)[Phe(4-COOH)]D[Phe(3-Me)]L[Bip]V[NMeA][dL][Dab][Cha]VEC[Dab][Aun]-OH; thioether N-14), the IC50 was found to be 20.2 nM.

For the molecule `CC(C)C[C@@H]1NC(=O)[C@H](Cc2c[nH]c3ccccc23)NC(=O)[C@H](CC(=O)O)NC(=O)[C@H](Cc2ccc(C(=O)O)cc2)NC(=O)[C@H](Cc2ccc(OCC(=O)O)cc2)NC(=O)CSC[C@@H](C(=O)N[C@@H](CCN)C(=O)NCCOCCOCC(=O)NCCCCCCCCCCC(=O)O)NC(=O)[C@H](CO)NC(=O)[C@H](C(C)(C)O)NC(=O)[C@H](CC2CCCCC2)NC(=O)[C@H](CCN)NC(=O)[C@@H](CC(C)C)NC(=O)[C@H](C)N(C)C(=O)[C@H](C(C)C)NC(=O)[C@H](Cc2ccc(-c3ccccc3)cc2)NC1=O` [Example 1411] ({CH2CO}-Y(Carboxymethyl)[Phe(4-COOH)]DWL[Bip]V[NMeA][dL][Dab][Cha][Val(3-OH)]SC[Dab][AEEA][Aun]-OH; thioether N-14), the IC50 amounted to 9.7 nM. Regarding `CCC(C)[C@@H]1NC(=O)[C@H](Cc2ccc(-c3ccccc3)cc2)NC(=O)[C@H](C(C)C)NC(=O)[C@H](Cc2c[nH]c3ccccc23)NC(=O)[C@H](CC(=O)O)NC(=O)[C@H](Cc2ccc(O)cc2)NC(=O)[C@H](CC(N)=O)NC(=O)CSC[C@@H](C(=O)N[C@H](CC(N)=O)C(=O)NCCOCCOCC(=O)NCCCCCCCCCCC(=O)O)NC(=O)[C@H](CO)NC(=O)[C@H](C(C)C)NC(=O)[C@H](CC(C)C)NC(=O)[C@H](CCN)NC(=O)[C@@H](CC(C)C)NC(=O)[C@H](C)N(C)C1=O` (stereo partly drawn) [Example 2059] ({CH2CO}-NYDWV[Bip][Ile(3ξ)][NMeA][dL][Dab]LVSC[dN][AEEA][Aun]-OH; thioether N-14), the IC50 worked out at 34.2 nM. Regarding `Cc1cccc(C[C@@H]2NC(=O)[C@H](CC(=O)O)NC(=O)[C@H](Cc3ccc(OCC(=O)O)cc3)NC(=O)[C@H]([C@@H](C)O)NC(=O)CSC[C@@H](C(=O)N[C@@H](CCN)C(=O)NCCCCCCCCCCC(=O)O)NC(=O)[C@H]([C@@H](C)O)NC(=O)[C@H](C(C)C)NC(=O)[C@H](CC3CCCCC3)NC(=O)[C@H](CCN)NC(=O)[C@@H](CC(C)C)NC(=O)[C@H](C)N(C)C(=O)[C@H](Cc3ccc(OCC(=O)O)cc3)NC(=O)[C@H](Cc3ccc(-c4ccc(F)cc4)cc3)NC(=O)[C@H](Cc3ccc(C(=O)O)cc3)NC2=O)c1` [Example 1235] ({CH2CO}-TY(Carboxymethyl)D[Phe(3-Me)][Phe(4-COOH)][Phe(4-(4-F-Ph))]Y(Carboxymethyl)[NMeA][dL][Dab][Cha]VTC[Dab][Aun]-OH; thioether N-14), the IC50 worked out at 9.5 nM. The figure for `Cc1cccc(C[C@@H]2NC(=O)[C@H](CC(=O)O)NC(=O)[C@H](Cc3ccc(OCC(=O)O)cc3)NC(=O)[C@H](CCCNC(=N)N)NC(=O)CSC[C@@H](C(=O)N(C)[C@@H](CC(N)=O)C(=O)NCCCCCCCCCCC(=O)O)NC(=O)[C@H](C(C)O)NC(=O)[C@H](C(C)C)NC(=O)[C@H](CC3CCCCC3)NC(=O)[C@H](CCN)NC(=O)[C@@H](CC(C)C)NC(=O)[C@H](C)N(C)C(=O)[C@H](C(C)C)NC(=O)[C@H](Cc3ccc(-c4ccccc4)cc3)NC(=O)[C@H](C(C)C)NC2=O)c1` (stereo partly drawn) [Example 2381] ({CH2CO}-RY(Carboxymethyl)D[Phe(3-Me)]V[Bip]V[NMeA][dL][Dab][Cha]V[Thr(3ξ)]C[NMeN][Aun]-OH; thioether N-14) is 33.8 nM; for `CC(=O)NCCCC[C@@H]1NC(=O)[C@H](C(C)C)NC(=O)[C@H](CC2CCCCC2)NC(=O)[C@H](CCN)NC(=O)[C@@H](CC(C)C)NC(=O)[C@H](C)N(C)C(=O)[C@H](Cc2ccc(O)cc2)NC(=O)[C@H](Cc2ccc(-c3ccccc3)cc2)NC(=O)[C@H](C(C)C)NC(=O)[C@H](Cc2cccc(C)c2)NC(=O)[C@H](CC(=O)O)NC(=O)[C@H](Cc2ccc(OCC(=O)O)cc2)NC(=O)[C@H](Cc2cnc[nH]2)NC(=O)CSC[C@@H](C(=O)N(C)CC(=O)NCCCCCCCCCCC(=O)O)NC1=O` [Example 2272] ({CH2CO}-HY(Carboxymethyl)D[Phe(3-Me)]V[Bip]Y[NMeA][dL][Dab][Cha]VK(Ac)C[Sar][Aun]-OH; thioether N-14) it is 231 nM; for `CC(C)C[C@@H]1NC(=O)[C@H](Cc2c[nH]c3ccccc23)NC(=O)[C@H](CC(=O)O)NC(=O)[C@H](Cc2ccc(C(=O)O)cc2)NC(=O)[C@H](Cc2ccc(OCC(=O)O)cc2)NC(=O)CSC[C@@H](C(=O)N[C@@H](CCN)C(=O)NCCOCCOCC(=O)NCCCCCCCCCCC(=O)O)NC(=O)[C@H](Cc2cnc[nH]2)NC(=O)[C@H](C(C)(C)O)NC(=O)[C@H](CC2CCCCC2)NC(=O)[C@H](CCN)NC(=O)[C@@H](CC(C)C)NC(=O)[C@H](C)N(C)C(=O)[C@H](C(C)C)NC(=O)[C@H](Cc2ccc(-c3ccccc3)cc2)NC1=O` [Example 1129] ({CH2CO}-Y(Carboxymethyl)[Phe(4-COOH)]DWL[Bip]V[NMeA][dL][Dab][Cha][Val(3-OH)]HC[Dab][AEEA][Aun]-OH; thioether N-14) it is 6.7 nM. As to `CC[C@@H](C)[C@@H]1NC(=O)[C@H](Cc2ccc(-c3ccccc3)cc2)NC(=O)[C@H](C(C)C)NC(=O)[C@H](Cc2c[nH]c3ccccc23)NC(=O)[C@H](CC(=O)O)NC(=O)[C@H](Cc2ccc(O)cc2)NC(=O)[C@H](CCCNC(N)=O)NC(=O)CSC[C@@H](C(=O)N[C@H](CCCCN)C(=O)NCCOCCOCC(=O)NCCCCCCCCCCC(=O)O)NC(=O)[C@H](CO)NC(=O)[C@H](C(C)C)NC(=O)[C@H](CC2CCCCC2)NC(=O)[C@H](CCN)NC(=O)[C@@H](CC(C)C)NC(=O)[C@H](C)N(C)C1=O` [Example 2027] ({CH2CO}-[Cit]YDWV[Bip][aIle][NMeA][dL][Dab][Cha]VSC[dK][AEEA][Aun]-OH; thioether N-14), the IC50 worked out at 38.6 nM. The figure for `Cc1cccc(C[C@@H]2NC(=O)[C@H](CC(=O)O)NC(=O)[C@H](Cc3ccc(OCC(=O)O)cc3)NC(=O)[C@H](Cc3ccc(OCC(=O)O)cc3)NC(=O)CSC[C@@H](C(=O)N[C@@H](CN)C(=O)NCCCCCCCCCCC(=O)O)NC(=O)[C@H](C(C)O)NC(=O)[C@H](C(C)C)NC(=O)[C@H](CC3CCCCC3)NC(=O)[C@H](CCN)NC(=O)[C@@H](CC(C)C)NC(=O)[C@H](C)N(C)C(=O)[C@H](C(C)C)NC(=O)[C@H](Cc3ccc(-c4ccccc4)cc3)NC(=O)[C@H](CC(C)C)NC2=O)c1` (stereo partly drawn) [Example 2333] ({CH2CO}-Y(Carboxymethyl)Y(Carboxymethyl)D[Phe(3-Me)]L[Bip]V[NMeA][dL][Dab][Cha]V[Thr(3ξ)]C[Dap][Aun]-OH; thioether N-14) is 23.5 nM; for `CC(C)C[C@H]1NC(=O)[C@H](C)N(C)C(=O)[C@H](Cc2ccc(OCC(=O)O)cc2)NC(=O)[C@H](Cc2ccc(-c3ccccc3)cc2)NC(=O)[C@H](Cc2ccc(OCC(=O)O)cc2)NC(=O)[C@H](Cc2c[nH]c3ccccc23)NC(=O)[C@H](CC(=O)O)NC(=O)[C@H](Cc2ccc(OCC(=O)O)cc2)NC(=O)[C@H]([C@@H](C)O)NC(=O)CSC[C@@H](C(=O)N[C@@H](CCCN)C(=O)NCCOCCOCC(=O)NCCCCCCCCCCC(=O)O)NC(=O)[C@H]([C@@H](C)O)NC(=O)[C@H](C(C)C)NC(=O)[C@H](CC2CCCCC2)NC(=O)[C@H](CC(N)=O)NC1=O` [Example 1387] ({CH2CO}-TY(Carboxymethyl)DWY(Carboxymethyl)[Bip]Y(Carboxymethyl)[NMeA][dL]N[Cha]VTC[Orn][AEEA][Aun]-OH; thioether N-14) it is 401 nM.
